Non-standard residues stand in square brackets, D forms with d. No end group written: not given here. pS = N[C@@H](COP(=O)(O)O)C(=O)O
Test system: phosphopeptide-specific CTL
Assay: Recognition of naturally processed phosphopeptides on cancer cell lines by phosphopeptide-specific CTL (murine IFNγ ELISA)
Type: cell-based
Details: 24 hours with COV413.AAD.A4, DM331.AAD.A4, SLM2.AAD.A1, MCF7.AAD.A2, MDAMB231.AAD cancer lines and JY EBV-BLCL control
Protocol: FIG. 1, comprising FIGS. 1A and 1B, is a graphic illustration of the recognition of naturally processed and presented phosphorylated peptides on cancer cells by the phosphopeptide-specific CTL. Phosphopeptide-specific CTL were incubated with the following cancer cell lines or EBV-transformed B lymphoblastoid cell lines (BLCL): COV413.AAD.A4 ovarian carcinoma, DM331.AAD.A4 and SLM2.AAD.A1 melanomas, MCF7.AAD.A2 and MDAMB231.AAD breast carcinomas, and JY EBV-BLCL. Supernatants were harvested and evaluated for the presence of murine IFNγ (produced by murine CTL lines). […] The ordinate indicates murine IFNγ in pg/ml. The abscissa indicates each cell line.
CTL specific for two of the antigen peptides were generated by long term culture with the peptides. Two CTL lines specific for the antigen peptide GLLGpSPVRA, lines 6850 and 6960, SEQ ID NO: 13, and two CTL lines specific for the antigen peptide RVApSPTSGV, SEQ ID NO: 14, lines 5183 and 63 were used to detect these two antigen peptides on cancer cells. […] Supernatants were harvested 24 hours later and evaluated for the presence of murine IFN[…] (produced by murine CTL lines) by ELISA (eBioscience Ready-Set-go murine IFN[…] ELISA kit).

Row | Substance | recognition of the phosphopeptide on cell lines by phosphopeptide-specific CTL (murine IFNγ in supernatant) (CTL lines 6850 and 6960, FIG. 1A) | recognition of the phosphopeptide on cell lines by phosphopeptide-specific CTL (murine IFNγ in supernatant) (CTL lines 5183 and 63, FIG. 1B)
1 | GLLGpSPVRA (GLLG[pS]PVRA; listed as Homo sapiens) [phosphopeptide from CDC25b:p63, HLA-A2.1] | recognize the phosphopeptide on all the cancer cell lines, but not the control cell line | –
2 | RVApSPTSGV (RVA[pS]PTSGV; listed as Homo sapiens) [phosphopeptide from Insulin receptor substrate-2, HLA-A2.1] | – | recognize the phosphopeptide on all the cancer cell lines, but not the control cell line

From patent US10640535B2, “Identification of MHC class I phospho-peptide antigens from breast cancer utilizing SHLA technology and complementary enrichment strategies” (Agenus Inc., priority 2012, dated 2020)
